Measured values published in article PMC12348470, “Amino Acid Substitutions in Bacteriocin Lactolisterin BU Reveal Functional Domains Involved in Biological Activity Against Staphylococcus aureus” (Molecules, 2025).
Like-named read-outs stand apart in the source and are kept apart here. Ends that are not written are not given here.

How the values were obtained:
S. aureus ATCC 25923 [1] = test: Spot-on-the-lawn antimicrobial screening; assay type: cell-based, Staphylococcus aureus; conditions: 5 µL spots at 1000, 500, 250, 125 and 62.5 µg/mL on LB soft agar lawn; overnight, 37 °C
Experimental: The antimicrobial activity screening assay of twelve chemically synthesized peptides was evaluated using a spot-on-the-lawn assay against S. aureus ATCC 25923.
S. aureus ATCC 25923 was grown overnight in LB broth, adjusted to 0.5 McFarland (~1 × 10^8 CFU/mL), and mixed 1:100 into molten soft agar (0.7% agar in LB). Five milliliters of this suspension was overlaid onto LB agar plates and allowed to solidify.
Peptide stock solutions (1 mg/mL) were serially diluted in sterile water, and 5 µL of each dilution was carefully spotted onto the surface of the inoculated agar. The plates were dried under a laminar flow hood for 15–20 min and incubated overnight at 37 °C. Zones were observed, and their size and clarity were compared.

S. aureus ATCC 25923 [2] = assay type: cell-based, Staphylococcus aureus
sheep erythrocytes = test: Hemolysis assay; assay type: cell-based; conditions: for hemolytic activity, in words: 6.25 to 50 µg/mL, sheep erythrocytes, 37 °C, 1 h
Experimental: Hemolytic activity of peptides was assessed as described by Dong et al., with some modifications. Fresh defibrinated sheep blood was obtained from the Institute of Virology, Vaccines and Sera “Torlak” (Belgrade, Serbia). Erythrocytes were washed three times with sterile Tris-buffered saline (TBS, 10 mM TRIS-HCl, pH 7.4, 150 mM NaCl) by centrifugation at 800× g for 5 min and resuspended to a final 2% (v/v) erythrocyte suspension in TBS.
Peptide solutions (0.02 M HCl) were diluted in Tris-buffered saline (TBS, 10 mM TRIS-HCl, pH 7.4, 150 mM NaCl) to final concentrations ranging from 6.25 to 50 µg/mL. In a 96-well flat-bottom plate, 100 µL of peptide solution was mixed with 100 µL of erythrocyte suspension and incubated at 37 °C for 1 h.
After incubation, the plates were centrifuged at 1000× g for 5 min, and 100 µL of the supernatant was transferred to a flat-bottom 96-well plate. Absorbance was measured at 540 nm using a microplate reader (model BioTek Epoch Microplate Spectrophotometer; Agilent Technologies, Winooski, VT, USA).
Hemolysis (%) was calculated relative to a negative control (TBS; 0% lysis) and a positive control (0.1% SDS; 100% lysis) using the formula: Hemolysis (%)=Asample−ATBS/ASDS−ATBS×100
(§1) The assay was performed in triplicate.

Caco-2 cells = test system: Caco-2 cells
Experimental: Caco-2 cells were used in the toxicity assay to model the human intestinal epithelium, as they closely mimic the morphology and function of enterocytes. This makes them a relevant in vitro system for evaluating the potential cytotoxic effects of bacteriocins upon oral exposure or gastrointestinal application.
The cytotoxic effects of peptides were evaluated on human colorectal adenocarcinoma Caco-2 cells (ATCC HTB-37). The cells were cultured in Dulbecco’s Modified Eagle Medium (DMEM, high glucose; Gibco, Thermo Fisher Scientific) supplemented with 10% fetal bovine serum (FBS) and 1% penicillin–streptomycin. The cells were maintained at 37 °C in a humidified incubator with 5% CO2 and subcultured twice weekly, according to Popovic et al..
Cytotoxic effects of peptides on Caco-2 cells were assessed using a lactate dehydrogenase (LDH) release assay according to the manufacturer’s protocol (Lactate Dehydrogenase Cytotoxicity Assay Kit (Thermo Fisher Scientific, Waltham, MA, USA)). The Caco-2 cells were seeded in 96-well flat-bottom plates at a density of 2 × 10^4 cells per well and allowed to reach confluency over 48 h at 37 °C and 5% CO2.
The cells were then incubated for 24 h. Untreated cells (incubated with medium only) served as a negative control, and cells treated with LDH Lysis buffer were used as a positive control.
Following peptide treatment, 50 µL of cell culture supernatant was transferred from each well into a new 96-well plate. LDH reaction mixture (50 µL) was added to each well and incubated at room temperature for 30 min in the dark. The absorbance was measured at 490 nm using a microplate reader.
Cytotoxicity (%) was calculated using the following formula: Cytotoxicity (%) = Asample − Anegative/Apositive − Anegative × 100
as §1

Danio rerio embryos = test: Zebrafish embryo toxicity (OECD TG 236); assay type: in vivo; conditions: for LC50 (zebrafish embryos): exposure to 120 hpf, 28 °C, 10 embryos/well, triplicate, LL.2 model, mean ± SD, n = 3
Experimental: Embryos were exposed to six different increasing concentrations of each peptide for 5 consecutive days (120 hfp) and examined for survival and signs of toxicity, following toxicological endpoints (Table S1).
The toxicity of synthetic peptide variants was assessed in vivo using Danio rerio embryos, in accordance with OECD Test Guideline 236 (Fish Embryo Acute Toxicity Test) and the European Directive 2010/63/EU on the protection of animals used for scientific purposes, according to Aleksic et al.. All procedures were conducted at the Institute of Molecular Genetics and Genetic Engineering, University of Belgrade.
Wild-type adult zebrafish were maintained under standard laboratory conditions (28 °C; 14:10 h light–dark cycle). Embryos were obtained via pairwise mating and collected within 1 h post-fertilization (hpf). At 5 hpf, the embryos were randomly distributed into 24-well plates (10 embryos/well, 1 mL embryo medium per well) containing embryo water (0.2 mg/mL Instant Ocean® salts in distilled water). Peptides were tested at five concentrations (e.g., 1.56–25 µg/mL) in triplicate. Peptide solvent was used as a negative control. The plates were incubated at 28 °C without media replacement.
Embryonic development was monitored using an inverted microscope (Zeiss Stemi 508; Carl Zeiss Microscopy GmbH, Jena, Germany). Lethal endpoints and sublethal malformations were scored according to OECD guidelines (Table S1). At 120 hpf, the embryos were anesthetized using 0.1% tricaine, photographed, and euthanized via freezing at −20 °C for 24 h.
LC50 values were estimated using the log–logistic binomial model (LL.2) from the drc package in R.
Dose–response curves and LC50 values were estimated using the log–logistic binomial model (LL.2) from the drc package in R [79] (version 2025.05.0). Mortality data were modeled as proportions of dead individuals relative to total individuals tested, and 95% confidence intervals for LC50 were calculated using the delta method.

icaR = test: Virulence gene expression, RT-qPCR; assay type: cell-based, S. aureus ATCC 25923; conditions: half MIC, 16–18 h, 37 °C, normalised to gmk, duplicate
Experimental: (§2) Untreated bacterial cultures in corresponding media served as controls.
(§3) All experiments were performed in duplicate.

lukSPV = test: Virulence gene expression, RT-qPCR; assay type: cell-based, S. aureus ATCC 25923; conditions: half MIC, 16–18 h, 37 °C, normalised to gmk, duplicate
Experimental: as §2, §3

hla = conditions: half MIC, 16–18 h, 37 °C, normalised to gmk, duplicate

MWGRILGTVAKYAPKAVSWAWQHKWELINMGDLAFRYIQRIWG [Peptide G13A]
zones of inhibition, spot-on-the-lawn assay (S. aureus ATCC 25923 [1]): comparable to the wild-type LBU peptide | MBC (S. aureus ATCC 25923 [2]): 12.5 µg/mL | hemolytic activity, in words (sheep erythrocytes): dose-dependent hemolysis | Hemolytic activity (%) at 25 µg/mL (sheep erythrocytes; pH 7.4): 22.69% | Hemolytic activity (%) at 50 µg/mL (sheep erythrocytes; pH 7.4): 28.86% | TI (LC50/MIC), Caco-2 (Caco-2 cells): 1.20 | concentration at which yolk sac retention was observed (Danio rerio embryos; 120 hpf): 1560 ng/mL | concentration causing general growth delay (Danio rerio embryos; 120 hpf): 1560 ng/mL | concentration causing hemorrhaging (Danio rerio embryos; 120 hpf): 1560 ng/mL | concentration causing pericardial edema (Danio rerio embryos; 120 hpf): 1560 ng/mL | concentration inducing lethal egg coagulation (Danio rerio embryos; 120 hpf): 1560 ng/mL | embryo mortality, in words (Danio rerio embryos; 120 h dose–response): nearly complete mortality at concentrations ≥3.1 µg/mL | icaR expression, log2 fold-change vs untreated control (icaR; FBS): 2.66 log2 fold change | icaR expression, log2 fold-change vs untreated control (icaR; LB medium): 0.36 log2 fold change | lukSPV expression, log2 fold-change vs untreated control (lukSPV; FBS): 2.49 log2 fold change | lukSPV expression, log2 fold-change vs untreated control (lukSPV; LB medium): -2.28 log2 fold change | hla expression, log2 fold-change vs untreated control (hla; FBS): 1.04 log2 fold change | hla expression, log2 fold-change vs untreated control (hla; LB medium): -0.11 log2 fold change

MWGRILATVAKYGPKAVSWAWQHKWELINMGDLAFRYIQRIWG [Peptide G7A]
zones of inhibition, spot-on-the-lawn assay (S. aureus ATCC 25923 [1]): comparable to the wild-type LBU peptide | MBC (S. aureus ATCC 25923 [2]): 25 µg/mL | hemolytic activity, in words (sheep erythrocytes): some membrane-disruptive potential at elevated concentrations (50 µg/mL) | TI (LC50/MIC), Caco-2 (Caco-2 cells): 5.11 | concentration at which yolk sac retention was observed (Danio rerio embryos; 120 hpf): 3130 ng/mL | concentration inducing lethal egg coagulation (Danio rerio embryos; 120 hpf): 6250 ng/mL | LC50 (zebrafish embryos) (Danio rerio embryos): 2.98 µg/mL | icaR expression, log2 fold-change vs untreated control (icaR; FBS): 1.71 log2 fold change | icaR expression, log2 fold-change vs untreated control (icaR; LB medium): 0.10 log2 fold change | lukSPV expression, log2 fold-change vs untreated control (lukSPV; FBS): 1.22 log2 fold change | lukSPV expression, log2 fold-change vs untreated control (lukSPV; LB medium): -2.88 log2 fold change | hla expression, log2 fold-change vs untreated control (hla; FBS): 0.51 log2 fold change | hla expression, log2 fold-change vs untreated control (hla; LB medium): -0.62 log2 fold change

MWARILGTVAKYGPKAVSWAWQHKWELINMGDLAFRYIQRIWG [Peptide G3A]
zones of inhibition, spot-on-the-lawn assay (S. aureus ATCC 25923 [1]): comparable to the wild-type LBU peptide | MBC (S. aureus ATCC 25923 [2]): 25 µg/mL | hemolytic activity, in words (sheep erythrocytes): no measurable hemolysis up to 25 µg/mL | TI (LC50/MIC), Caco-2 (Caco-2 cells): 7.03 | concentration at which yolk sac retention was observed (Danio rerio embryos; 120 hpf): 6250 ng/mL | LC50 (zebrafish embryos) (Danio rerio embryos): 5.69 µg/mL | icaR expression, log2 fold-change vs untreated control (icaR; FBS): -1.43 log2 fold change | icaR expression, log2 fold-change vs untreated control (icaR; LB medium): 0.06 log2 fold change | lukSPV expression, log2 fold-change vs untreated control (lukSPV; FBS): -1.54 log2 fold change | lukSPV expression, log2 fold-change vs untreated control (lukSPV; LB medium): 1.77 log2 fold change | hla expression, log2 fold-change vs untreated control (hla; FBS): -0.30 log2 fold change | hla expression, log2 fold-change vs untreated control (hla; LB medium): 0.60 log2 fold change
